Data from patent US20260138992A1, “LUR[…] FORM AND METHOD FOR PREPARING SAME” (priority 2022, published 2026).
Read-outs that look alike come from different tables or passages of the source.

Assays:
[1] = assay type: physicochemical; conditions: for chemical stability (assessment in words) / physical stability (assessment in words): 10 days under long-term and accelerated conditions; for product purity: after 10 days at 25° C./60% RH and 40° C./75% RH; for purity: sealed and stored at −20° C. for 120 days
[2] = Observation of electrostatic properties of the crystal forms (glass bottle storage, weighing); assay type: physicochemical; conditions: for electrostatic effect (sticking to scoop and weighing paper): during the weighing; for wall-hanging phenomenon: stored in a glass bottle
[3] = during its manipulation; cited from earlier work
[4] = Stability test of crystal form I of lurbinectedin (XRPD and HPLC purity after storage); assay type: physicochemical
[5] = Applicant's experimental study of the stability of crystal Form A of CN114940682A; assay type: physicochemical
[6] = 10 days under long-term (25° C./60% RH) and accelerated (40° C./75% RH) conditions
[7] = Group 6, sealed and stored at −20° C. for 120 days
[8] = Group 2, kept in dark, sealed, 2-8° C. for 12 months
[9] = Group 3, kept in dark, sealed, −20° C. for 20 months
[10] = stored at −20° C. in the dark and sealed, and at 2-8° C. in the dark and sealed

| SMILES | XRPD crystal form [1, 6] | chemical stability (assessment in words) [1] | physical stability (assessment in words) [1] | HPLC purity ([1]; Group 1, 0 day) | HPLC purity ([1]; Group 2, 25° C./60% RH-5 days) | HPLC purity ([1]; Group 3, 25° C./60% RH-10 days) | HPLC purity ([1]; Group 4, 40° C./75% RH-5 days) | HPLC purity ([1]; Group 5, 40° C./75% RH-10 days) | HPLC purity [1, 7] | product purity [1] | purity [1] | XRPD crystal form ([1]; sealed, −20° C. for 120 days) | electrostatic effect (sticking to scoop and weighing paper) [2] | wall-hanging phenomenon [2] | other results |
| --- | --- | --- | --- | --- | --- | --- | --- | --- | --- | --- | --- | --- | --- | --- | --- |
| COc1ccc2[nH]c3c(c2c1)CCN[C@]31CS[C@@H]2c3c(OC(C)=O)c(C)c4c(c3[C@H](COC1=O)N1[C@@H]2[C@H]2c3c(cc(C)c(OC)c3O)C[C@@H]([C@@H]1O)N2C)OCO4 [crystal form IV, lurbinectedin] | remained unchanged | excellent | excellent | 99.90% | 99.86% | 99.74% | 99.79% | 99.78% | 99.91% | above 99% | above 99% | remained unchanged | do not show electrostatic effect or the effect is not obvious | no wall-hanging phenomenon or the phenomenon is not obvious | XRPD crystal form ([1]; sealed, −20° C. for 120 days, listed as Crystal form IV): unchanged |
| COc1ccc2[nH]c3c(c2c1)CCN[C@]31CS[C@@H]2c3c(OC(C)=O)c(C)c4c(c3[C@H](COC1=O)N1[C@@H]2[C@H]2c3c(cc(C)c(OC)c3O)C[C@@H]([C@@H]1O)N2C)OCO4 [crystal form III, lurbinectedin] | remained unchanged | excellent | excellent | 99.61% | 99.48% | 99.42% | 99.48% | 99.37% | 99.60% | above 99% | above 99% | remained unchanged | do not show electrostatic effect or the effect is not obvious | no wall-hanging phenomenon or the phenomenon is not obvious | XRPD crystal form ([1]; sealed, −20° C. for 120 days, listed as Crystal form III): unchanged |
| COc1ccc2[nH]c3c(c2c1)CCN[C@]31CS[C@@H]2c3c(OC(C)=O)c(C)c4c(c3[C@H](COC1=O)N1[C@@H]2[C@H]2c3c(cc(C)c(OC)c3O)C[C@@H]([C@@H]1O)N2C)OCO4 [crystal form B, lurbinectedin, reference compound] | remained unchanged | relatively poor | excellent | 99.62% | 99.44% | 99.05% | 99.13% | 99.24% | 99.60% | decreased | above 99% | remained unchanged | obvious electrostatic effect | exhibits wall-hanging phenomenon | XRPD crystal form ([1]; 10 days under long-term (25° C./60% RH) and accelerated (40° C./75% RH) conditions, listed as Crystal form B): unchanged for 10; XRPD crystal form ([1]; sealed, −20° C. for 120 days, listed as Crystal form B): unchanged |
| COc1ccc2[nH]c3c(c2c1)CCN[C@]31CS[C@@H]2c3c(OC(C)=O)c(C)c4c(c3[C@H](COC1=O)N1[C@@H]2[C@H]2c3c(cc(C)c(OC)c3O)C[C@@H]([C@@H]1O)N2C)OCO4 [Form A, lurbinectedin] |  |  |  |  |  |  |  |  |  |  |  |  |  |  | static electricity [3]: has static electricity |
| COc1ccc2[nH]c3c(c2c1)CCN[C@]31CS[C@@H]2c3c(OC(C)=O)c(C)c4c(c3[C@H](COC1=O)N1[C@@H]2[C@H]2c3c(cc(C)c(OC)c3O)C[C@@H]([C@@H]1O)N2C)OCO4 [crystal form I, lurbinectedin] |  |  |  |  |  |  |  |  |  |  |  |  | do not show electrostatic effect or the effect is not obvious | no wall-hanging phenomenon or the phenomenon is not obvious | Crystal form of lurbinectedin (XRPD) ([4]; Group 1, initial moment): crystal form I; HPLC purity ([4]; Group 1, initial moment): 99.91%; Crystal form of lurbinectedin (XRPD) [4, 8]: crystal form I; HPLC purity [4, 8]: 99.68%; Crystal form of lurbinectedin (XRPD) [4, 9]: crystal form I; HPLC purity [4, 9]: 99.65%; time the crystal form remains stable ([4]; stored at 2-8° C. or −20° C.): at least 12 months; crystal form [4, 10]: remained unchanged; product purity [4, 10]: above 99% |
| COc1ccc2[nH]c3c(c2c1)CCN[C@]31CS[C@@H]2c3c(OC(C)=O)c(C)c4c(c3[C@H](COC1=O)N1[C@@H]2[C@H]2c3c(cc(C)c(OC)c3O)C[C@@H]([C@@H]1O)N2C)OCO4 [crystal Form A, lurbinectedin] |  |  |  |  |  |  |  |  |  |  |  |  |  |  | stability of the crystal form ([5]; at room temperature, converts into other crystal forms readily): highly unstable; stability of the crystal form ([5]; at −20° C.): stable |
| COc1ccc2[nH]c3c(c2c1)CCN[C@]31CS[C@@H]2c3c(OC(C)=O)c(C)c4c(c3[C@H](COC1=O)N1[C@@H]2[C@H]2c3c(cc(C)c(OC)c3O)C[C@@H]([C@@H]1O)N2C)OCO4 [crystal form V, lurbinectedin] |  |  |  |  |  |  |  |  |  |  |  |  | do not show electrostatic effect or the effect is not obvious | no wall-hanging phenomenon or the phenomenon is not obvious |  |
| COc1ccc2[nH]c3c(c2c1)CCN[C@]31CS[C@@H]2c3c(OC(C)=O)c(C)c4c(c3[C@H](COC1=O)N1[C@@H]2[C@H]2c3c(cc(C)c(OC)c3O)C[C@@H]([C@@H]1O)N2C)OCO4 [crystal form II, lurbinectedin] | remained unchanged | excellent | excellent | 99.59% | 99.40% | 99.41% | 99.41% | 99.41% | 99.58% | above 99% | above 99% | remained unchanged | do not show electrostatic effect or the effect is not obvious | no wall-hanging phenomenon or the phenomenon is not obvious | XRPD crystal form ([1]; sealed, −20° C. for 120 days, listed as Crystal form II): unchanged |
